From patent US11524955B2, “2,4-diamino-pyrimidine compounds and method for making and using the compounds” (Rigel Pharmaceuticals, Inc., priority 2016, dated 2022)
Read-outs that look alike come from different tables or passages of the source.

Assays:
[1] = system: IL-23, THP1 cells; experiment: IL-23 assay, THP1 cells primed with IFNg, LPS stimulated, ELISA; assay type: cell-based; details: Homo sapiens, THP-1
Description: (§1) IL-23 assays: THP1 cells or human primary monocyte-derived dendritic cells (DC) were primed overnight with IFNg. Following one hour preincubation with compound, cells were stimulated overnight with LPS. IL-23 released into the media was quantitated by ELISA.

[2] = system: IL-23, dendritic cells; experiment: IL-23 assay, human primary monocyte-derived dendritic cells, LPS stimulated, ELISA; assay type: cell-based; details: Dendritic cell
Description: as §1

[3] = biological target: T1, IRAK4 (Homo sapiens, UniProt Q9NWZ3); experiment: IRAK4 biochemical assay, ADP-Glo kinase assay; details: for Selectivity (TAK1/IRAK4): ratio of TAK1 and IRAK4 IC50
T1 sequence (Q9NWZ3 1-460): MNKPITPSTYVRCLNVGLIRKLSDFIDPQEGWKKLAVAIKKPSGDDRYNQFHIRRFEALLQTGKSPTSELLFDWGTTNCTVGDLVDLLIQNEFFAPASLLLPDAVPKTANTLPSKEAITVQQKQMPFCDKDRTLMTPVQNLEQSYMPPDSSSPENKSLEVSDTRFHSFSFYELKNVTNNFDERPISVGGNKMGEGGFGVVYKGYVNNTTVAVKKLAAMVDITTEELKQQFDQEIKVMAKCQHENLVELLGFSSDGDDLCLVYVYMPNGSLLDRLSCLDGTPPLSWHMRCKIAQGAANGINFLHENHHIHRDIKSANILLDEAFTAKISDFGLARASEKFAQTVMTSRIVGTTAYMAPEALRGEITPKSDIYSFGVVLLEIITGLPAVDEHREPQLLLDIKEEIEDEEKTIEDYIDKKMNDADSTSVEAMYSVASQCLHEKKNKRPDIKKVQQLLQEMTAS
Description: (§2) IRAK4 and TAK1 biochemical assays: kinase activity was measured by ADP-Glo kinase assay (Promega).

[4] = biological target: T2, TAK1 (Homo sapiens, UniProt O43318); experiment: TAK1 biochemical assay, ADP-Glo kinase assay
T2 sequence (O43318 1-303 limits assumed): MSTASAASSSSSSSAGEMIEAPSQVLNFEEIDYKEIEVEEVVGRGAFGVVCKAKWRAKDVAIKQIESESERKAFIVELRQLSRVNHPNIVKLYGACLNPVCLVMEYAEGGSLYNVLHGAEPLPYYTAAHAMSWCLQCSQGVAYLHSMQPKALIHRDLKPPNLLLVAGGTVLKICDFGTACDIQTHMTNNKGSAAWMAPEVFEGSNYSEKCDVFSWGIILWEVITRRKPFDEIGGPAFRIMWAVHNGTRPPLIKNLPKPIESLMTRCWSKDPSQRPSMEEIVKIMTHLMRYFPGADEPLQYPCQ
Description: as §2

[5] = system: IL-8, HUVEC; experiment: IL-8 assay, HUVEC, ELISA; assay type: cell-based, human; details: for IC50: Homo sapiens
[6] = system: IL-6, HUVEC; experiment: IL-6 assay, HUVEC, ELISA; assay type: cell-based, human; details: for IC50: Homo sapiens
[7] = THP1 cells, IFNy primed, LPS stimulated, 10 pt, read-out: IL23-p19 ELISA, THP1-IFNy, LPS, 10 pt
[8] = LPS stimulated, 10 pt, read-out: IL23-P19, ELISA, Dendritic, LPS, 10 pt
[9] = read-out: IL23 (LPS induced) IC50

Compound | IC50 [1, 7] | IC50 [2, 8] | IC50 [1, 9] | IC50 [3] | IC50 [4] | Selectivity (TAK1/IRAK4) [3] | further results
Cc1cc(Nc2ncc(-c3cccnc3)c(NC3C4C=CC(C4)C3C(N)=O)n2)ccc1OCCN1CCCC1 (stereo not shown) [Compound 1, 3-((2-((3-methyl-4-(2-(pyrrolidin-1-yl)ethoxy)phenyl)amino)-5-(pyridin-3-yl)pyrimidin-4-yl)amino)bicyclo[2.2.1] hept-5-ene-2-carboxamide] | < 100 nM | < 250 nM | – | – | – | – | –
NC(=O)[C@@H]1[C@H](Nc2nc(Nc3ccc(OCCN4CCCC4)cc3)ncc2-c2cccnc2)[C@H]2C=C[C@@H]1C2 [Compound 2] | < 1000 nM | – | – | – | – | – | –
CS(=O)(=O)N1CCN(c2ccc(Nc3ncc(-c4cccnc4)c(N[C@@H]4C5C=CC(C5)[C@@H]4C(N)=O)n3)cc2F)CC1 (stereo partly drawn) [Compound 3, (2S,3R)-3-((2-((3-fluoro-4-(4-(methylsulfonyl)piperazin-1-yl)phenyl)amino)-5-(pyridin-3-yl)pyrimidin-4-yl)amino)bicyclo[2.2.1] hept-5-ene-2-carboxamide] | < 1000 nM | – | – | – | – | – | –
NC(=O)[C@@H]1[C@H](Nc2nc(Nc3cccc(C(=O)N4CCCC4)c3)ncc2-c2cccnc2)[C@H]2C=C[C@@H]1C2 [Compound 4, (1S,2S,3R,4R)-3-((5-(pyridin-3-yl)-2-((3-(pyrrolidine-1-carbonyl)phenyl)amino)pyrimidin-4-yl)amino)bicyclo[2.2.1] hept-5-ene-2-carboxamide] | < 1000 nM | – | 320 nM | 10 nM | 229 nM | – | –
Cc1cnc(Nc2cccc(C(=O)N3CCCC3)c2)nc1N[C@H]1[C@@H](C(N)=O)[C@@H]2C=C[C@H]1C2 [Compound 5, (1S,2S,3R,4R)-3-((5-methyl-2-((3-(pyrrolidine-1-carbonyl)phenyl)amino)pyrimidin-4-yl)amino)bicyclo[2.2.1] hept-5-ene-2-carboxamide] | < 100 nM | – | 100 nM | 3 nM | 8 nM | – | –
NC(=O)[C@@H]1[C@H](Nc2nc(Nc3cccc(C(=O)N4CCCC4)c3)ncc2C2CC2)[C@H]2C=C[C@@H]1C2 [Compound 6, (1S,2S,3R,4R)-3-((5-cyclopropyl-2-((3-(pyrrolidine-1-carbonyl)phenyl)amino)pyrimidin-4-yl)amino)bicyclo[2.2.1] hept-5-ene-2-carboxamide] | < 100 nM | < 100 nM | 90 nM | 6 nM | 11 nM | – | –
NC(=O)[C@@H]1[C@H](Nc2nc(Nc3cccc(C(=O)N4CCCC4)c3)ncc2-c2ccoc2)[C@H]2C=C[C@@H]1C2 [Compound 7, (1S,2S,3R,4R)-3-((5-(furan-3-yl)-2-((3-(pyrrolidine-1-carbonyl)phenyl)amino)pyrimidin-4-yl)amino)bicyclo[2.2.1] hept-5-ene-2-carboxamide] | < 100 nM | < 100 nM | 40 nM | 2 nM | 11 nM | – | –
NC(=O)[C@@H]1[C@H](Nc2nc(Nc3cccc(C(=O)N4CCCC4)c3)ncc2-c2ccccc2)[C@H]2C=C[C@@H]1C2 [Compound 8, (1S,2S,3R,4R)-3-((5-phenyl-2-((3 (pyrrolidine-1-carbonyl)phenyl)amino)pyrimidin-4-yl)amino)bicyclo[2.2.1] hept-5-ene-2-carboxamide] | < 250 nM | < 1000 nM | 220 nM | 10 nM | 166 nM | – | –

Continued, in another order:

IC50 [1, 7] | IC50 [2, 8] | IC50 [1, 9] | IC50 [3] | IC50 [4] | Selectivity (TAK1/IRAK4) [3] | Compound | further results
< 250 nM | < 250 nM | 130 nM | 4 nM | 24 nM | 7 | NC(=O)[C@@H]1[C@H](Nc2nc(Nc3cccc(C(=O)N4CCCC4)c3)ncc2-c2ccncc2)[C@H]2C=C[C@@H]1C2 [Compound 9, (1S,2S,3R,4R)-3-((5-(pyridin-4-yl)-2-((3-(pyrrolidine-1-carbonyl)phenyl)amino)pyrimidin-4-yl)amino)bicyclo[2.2.1] hept-5-ene-2-carboxamide] | –
< 1000 nM | – | 870 nM | 11 nM | 4800 nM | 434 | NC(=O)[C@@H]1[C@H](Nc2nc(Nc3cccc(C(=O)N4CCCC4)c3)ncc2-c2ccccc2F)[C@H]2C=C[C@@H]1C2 [Compound 10, (1S,2S,3R,4R)-3-((5-(2-fluorophenyl)-2-((3-(pyrrolidine-1-carbonyl)phenyl)amino)pyrimidin-4-yl)amino)bicyclo[2.2.1] hept-5-ene-2-carboxamide] | IRAK4/TAK1 selectivity [3]: 434
< 250 nM | < 100 nM | 130 nM | 6 nM | 106 nM | 17 | NC(=O)[C@@H]1[C@H](Nc2nc(Nc3cccc(C(=O)N4CCCC4)c3)ncc2-c2cccc(F)c2)[C@H]2C=C[C@@H]1C2 [Compound 11, (1S,2S,3R,4R)-3-((5-(3-fluorophenyl)-2-((3-(pyrrolidine-1-carbonyl)phenyl)amino)pyrimidin-4-yl)amino)bicyclo[2.2.1] hept-5-ene-2-carboxamide] | IC50 ([1]; THP cells, LPS, read-out: IL23 (THP, LPS) IC50): 130 nM; IC50 ([5]; read-out: IL8 (HUVEC, IL-1β) IC50): 310 nM; IC50 ([5]; read-out: IL8 (HUVEC, LPS) IC50): 950 nM; IC50 ([5]; read-out: IL8 (HUVEC, TNFα) IC50): 6000 nM; Selectivity IL8 (TNFα/IL-1β) ([5]; ratio TNFα/IL-1β): 18; Selectivity IL8 (TNFα/LPS) ([5]; ratio TNFα/LPS): 6; IC50 ([2]; LPS, read-out: IL23 (Dentritic Cells, LPS) IC50): 70 nM; IC50 ([6]; read-out: IL6 (HUVEC, IL-1β) IC50): 140 nM; IC50 ([6]; read-out: IL6 (HUVEC, LPS) IC50): 130 nM; IC50 ([6]; read-out: IL6 (HUVEC, TNFα) IC50): 1700 nM; Selectivity IL6 (TNFα/IL-1β) ([6]; ratio TNFα/IL-1β): 12; Selectivity IL6 (TNFα/LPS) ([6]; ratio TNFα/LPS): 13
< 1000 nM | > 1000 nM | 460 nM | 19 nM | 670 nM | – | NC(=O)[C@@H]1[C@H](Nc2nc(Nc3cccc(C(=O)N4CCCC4)c3)ncc2-c2ccc(F)cc2)[C@H]2C=C[C@@H]1C2 [Compound 12, (1S,2S,3R,4R)-3-((5-(4-fluorophenyl)-2-((3 (pyrrolidine-1-carbonyl)phenyl)amino)pyrimidin-4-yl)amino)bicyclo[2.2.1] hept-5-ene-2-carboxamide] | –
< 1000 nM | < 1000 nM | 280 nM | 13 nM | 105 nM | – | N#Cc1cccc(-c2cnc(Nc3cccc(C(=O)N4CCCC4)c3)nc2N[C@H]2[C@@H](C(N)=O)[C@@H]3C=C[C@H]2C3)c1 [Compound 13, (1S,2S,3R,4R)-3-((5-(3-cyanophenyl)-2-((3-(pyrrolidine-1-carbonyl)phenyl)amino)pyrimidin-4-yl)amino)bicyclo[2.2.1] hept-5-ene-2-carboxamide] | –
< 250 nM | < 1000 nM | 190 nM | 9 nM | 1600 nM | – | N#Cc1ccc(-c2cnc(Nc3cccc(C(=O)N4CCCC4)c3)nc2N[C@H]2[C@@H](C(N)=O)[C@@H]3C=C[C@H]2C3)cc1 [Compound 14, (1S,2S,3R,4R)-3-((5-(4-cyanophenyl)-2-((3-(pyrrolidine-1-carbonyl)phenyl)amino)pyrimidin-4-yl)amino)bicyclo[2.2.1] hept-5-ene-2-carboxamide] | –
< 1000 nM | – | 900 nM | 30 nM | 67 nM | 2 | N#Cc1cccc(-c2cnc(Nc3cccc(C(=O)N4CCCC4)c3)nc2N[C@@H]2CCCC[C@@H]2C(N)=O)c1 [Compound 17, (1S,2R)-2-((5-(3-cyanophenyl)-2-((3-(pyrrolidine-1-carbonyl)phenyl)amino)pyrimidin-4-yl)amino)cyclohexane-1-carboxamide] | –
> 1000 nM | – | 3400 nM | 3700 nM | 132000 nM | 36 | N#Cc1cccc(-c2cnc(Nc3cccc(C(=O)N4CCCC4)c3)nc2N[C@H]2[C@@H](C#N)[C@@H]3C=C[C@H]2C3)c1 [Compound 18, (1S,2S,3R,4R)-3-((5-(3-cyanophenyl)-2-((3-(pyrrolidine-1-carbonyl)phenyl)amino)pyrimidin-4-yl)amino)bicyclo[2.2.1] hept-5-ene-2-carbonitrile] | –
